According to US20100298758A1, “METHOD FOR NON-THERAPEUTIC OR THERAPEUTIC PHOTODYNAMIC SKIN TREATMENT” (priority 2007, published 2010):

System: cancer cells with high metabolism
Assay: Fluorescence after administration of 5-ALA in actinic keratosis (FIG. 5)
Type: in vivo
Conditions: other investigations

NCC(=O)CCC(=O)O [5-ALA, 5-aminolevulinic acid]
fluorescence in cancer cells compared to normal cells: high selective fluorescence in cancer cells
